Values after ≈ are worked out from the molar mass of the structure shown.
Tests used:
Assay type in all cases: cell-based
Candida MY 1010 = assay: Antifungal inhibitor dilution assay in microtiter format (yeasts); conditions: MY1010, lowest concentration to prevent growth, read-out: Minimum Inhibitory Concentration
Protocol: (§1) The compounds are particularly active towards filamentous fungi and yeasts including Candida albicans and Cryptococcus neoformans. The sensitivity of filamentous fungi and yeast is determined using inhibitor dilution assays in microtiter format. The compounds are dissolved in DMSO at 2 mg/ml and serially diluted in 0.1M phosphate buffer, pH 7.0 in the microtiter dish from 100 to 0.006 μg/ml. A standardized spore suspension for testing the filamentous fungi is prepared by inoculating Antibiotic Medium #3 containing 1.5% agar with spores such that 1.5×10^3 colony forming units are added per well. The microtiter wells are filled with 50 μof buffer containing compound and 50 μl of inoculated medium.
(§2) The sensitivity of yeasts is determined by inoculating yeast nitrogen base containing 1% dextrose (YNB/G) with aliquots of an overnight yeast culture grown in Yeast Morphology (YM) media at 35° C. and diluting in YNB/G to yield a final concentration of 1.5-7.5×10^3 colony forming units/well. To test the sensitivity of yeast, compound is solubilized in 10 percent aqueous DMSO at 2.56 mg/ml. The compound is diluted serially in YNB/G from 128 to 0.06 μg/ml and further diluted 1:10 in YNB/G. The wells are filled with 150 μl of media containing drug. The minimum inhibitory concentration (MIC) is defined as the lowest concentration to prevent growth after an incubation for 42 hours, at 28° C. for the filamentous fungi and 24 to 48 hours, at 35° for the yeasts.

Candida MY 1012 = assay: as above; conditions: MY1012, lowest concentration to prevent growth, read-out: Minimum Inhibitory Concentration
Protocol: as §1, §2

Candida MY 1019 = assay: as above; conditions: MY1019, lowest concentration to prevent growth, read-out: Minimum Inhibitory Concentration
Protocol: as §1, §2

Candida MY 1028 = assay: as above; conditions: MY1028, lowest concentration to prevent growth, read-out: Minimum Inhibitory Concentration
Protocol: as §1, §2

Candida MY 1055 = assay: as above; conditions: MY1055, lowest concentration to prevent growth, read-out: Minimum Inhibitory Concentration
Protocol: as §1, §2

Candida MY 1750 = assay: as above; conditions: MY1750, lowest concentration to prevent growth, read-out: Minimum Inhibitory Concentration
Protocol: as §1, §2

Candida MY 2099 = assay: as above; conditions: MY2099, lowest concentration to prevent growth, read-out: Minimum Inhibitory Concentration
Protocol: as §1, §2

Cryptococcus MY 1051 = assay: as above; conditions: MY1051, lowest concentration to prevent growth, read-out: Minimum Inhibitory Concentration
Protocol: as §1, §2

Cryptococcus MY 1146 = assay: as above; conditions: MY1146, lowest concentration to prevent growth, read-out: Minimum Inhibitory Concentration
Protocol: as §1, §2

Cryptococcus MY 2061 = assay: as above; conditions: MY2061, lowest concentration to prevent growth, read-out: Minimum Inhibitory Concentration
Protocol: as §1, §2

Cryptococcus MY 2062 = assay: as above; conditions: MY2062, lowest concentration to prevent growth, read-out: Minimum Inhibitory Concentration
Protocol: as §1, §2

Sachromyces MY 1976 = assay: as above; conditions: lowest concentration to prevent growth, read-out: Minimum Inhibitory Concentration
Protocol: as §1, §2

Aspergillus MF 0383 = assay: Antifungal inhibitor dilution assay in microtiter format (filamentous fungi); conditions: MF0383, lowest concentration to prevent growth, read-out: Minimum Inhibitory Concentration
Protocol: as §1, §2

Aspergillus MF 4839 = assay: as above; conditions: MF4839, lowest concentration to prevent growth, read-out: Minimum Inhibitory Concentration
Protocol: as §1, §2

Aspergillus MF 5668 = assay: as above; conditions: MF5668, lowest concentration to prevent growth, read-out: Minimum Inhibitory Concentration
Protocol: as §1, §2

Aspergillus MF 5669 = assay: as above; conditions: MF5669, lowest concentration to prevent growth, read-out: Minimum Inhibitory Concentration
Protocol: as §1, §2

Compound	MIC (Candida MY 1010)	MIC (Candida MY 1012)	MIC (Candida MY 1019)	MIC (Candida MY 1028)	MIC (Candida MY 1055)	MIC (Candida MY 1750)	MIC (Candida MY 2099)	MIC (Cryptococcus MY 1051)	MIC (Cryptococcus MY 1146)	MIC (Cryptococcus MY 2061)	MIC (Cryptococcus MY 2062)	MIC (Sachromyces MY 1976)	MIC (Aspergillus MF 0383)	MIC (Aspergillus MF 4839)	MIC (Aspergillus MF 5668)	MIC (Aspergillus MF 5669)
C=C(CC[C@]12OC[C@@](O)(C(=O)O)[C@](C(=O)O)(O1)[C@H](OC(=O)/C=C/[C@@H](C)C[C@@H](C)CC)[C@H]2O)[C@@H](OC(C)=O)[C@H](C)Cc1ccccc1 [Zaragozic Acid A-3-Descarboxy, (1S,4S,5R,6R,7R)-1-[(4S)-acetoxy-3-methylene-(5R)-methyl-6-phenyl]hexyl-4,6,7-trihydroxy-6-O-((4S),(6S)-dimethyl-2-octenoyl)-2,8-dioxabicyclo-[3.2.1]octane-4,5-dicarboxylic acid]	64 µg/mL (≈ 99 µM)	16 µg/mL (≈ 24.7 µM)	> 128 µg/mL	32 µg/mL (≈ 49.5 µM)	64 µg/mL (≈ 99 µM)	64 µg/mL (≈ 99 µM)	> 128 µg/mL	0.25 µg/mL (≈ 0.387 µM)	2 µg/mL (≈ 3.09 µM)	4 µg/mL (≈ 6.18 µM)	1 µg/mL (≈ 1.55 µM)	> 128 µg/mL	2 µg/mL (≈ 3.09 µM)	8 µg/mL (≈ 12.4 µM)	32 µg/mL (≈ 49.5 µM)	8 µg/mL (≈ 12.4 µM)
C=C(CC[C@]12OC[C@@](O)(C(=O)OCOC(=O)C(C)(C)C)[C@](C(=O)O)(O1)[C@H](OC(=O)/C=C/[C@@H](C)C[C@@H](C)CC)[C@H]2O)[C@@H](OC(C)=O)[C@H](C)Cc1ccccc1 [Zaragozic acid A-3-descarboxy-4-methyl pivalate ester]	> 128 µg/mL	16 µg/mL (≈ 21 µM)	> 128 µg/mL	> 128 µg/mL	> 128 µg/mL	> 128 µg/mL	> 128 µg/mL	2 µg/mL (≈ 2.63 µM)	8 µg/mL (≈ 10.5 µM)	64 µg/mL (≈ 84.1 µM)	8 µg/mL (≈ 10.5 µM)	> 128 µg/mL	1 µg/mL (≈ 1.31 µM)	32 µg/mL (≈ 42.1 µM)	32 µg/mL (≈ 42.1 µM)	32 µg/mL (≈ 42.1 µM)
